Results as given in patent publication US10519177B2, “Heterocyclic compounds and uses thereof” (Plexxikon Inc., priority 2013, dated 2019).
Like-named read-outs stand apart in the source and are kept apart here.

Columns and labels:
bromodomain = test: at least one of the bromodomain cell assays of Example 57; assay type: cell-based; conditions: at least one of the bromodomain cell assays described in Example 57; read-out: IC50 in at least one of the bromodomain cell assays
BRD4-BD12 (1-477) = BRD4-BD12 (1-477) (Homo sapiens (Human), UniProt O60885); test: Alphascreen binding assay BRD4-BD12; conditions: BRD4(1 2) H4; read-out: Biochemical activity (IC50 μM) BRD4(1 2) H4
Outline: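 First, compound was preincubated 1 h at room temperature with the His-tagged BRD4 protein (BD1 44-164 or tandem BD12 1-477) and acetylated H4 peptide. Next, donor and acceptor beads were added at 7.5 μg/ml final. After 30 min, AlphaScreen emission was recorded.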

MV-4-11 cells = test: Oncology cell growth assay MV-4-11 (CellTiter Glo); assay type: cell-based; conditions: Homo sapiens, MV4-11, 72 h, read-out: Cell activity (IC50 μM) MV-4-11 3d-Growth
Outline: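 MV-4-11 AML cells (MLL-AF4), 3000 per well, exposed to 8-point 1:3 compound titration from 10 μM top concentration (0.2% DMSO) for 72 h. Viability by CellTiter Glo luminescence, normalized to DMSO controls; pIC50 from four-parameter curve fit.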

Row | Compound | IC50 (bromodomain) | IC50 (BRD4-BD12 (1-477)) | IC50 (MV-4-11 cells) | IC50 (MV-4-11 cells; MV-4-11, 3d growth)
1 | Cc1noc(C)c1-c1cnc2c(-c3cccc(CC(=O)O)c3)cn(CC3CCC(F)(F)CC3)c2c1 [P-0411, 2-[3-[1-[(4,4-difluorocyclohexyl)methyl]-6-(3,5-dimethylisoxazol-4-yl)pyrrolo[3,2-b]pyridin-3-yl]phenyl]acetic acid] | < 10000 nM | < 1 µM | < 1 µM | 
2 | Cc1noc(C)c1-c1cnc2c(-c3ccc(S(N)(=O)=O)cc3)cn(CC3(F)CCCCC3)c2c1 [P-0379, 4-[6-(3,5-dimethylisoxazol-4-yl)-1-[(1-fluorocyclohexyl)methyl]pyrrolo[3,2-b]pyridin-3-yl]benzenesulfonamide] | < 10000 nM | < 1 µM | < 1 µM | 
3 | Cc1noc(C)c1-c1cnc2c(-c3ccc(CC(=O)O)cc3)cn(CC3CCCCC3)c2c1 [P-0590, 2-[4-[1-(cyclohexylmethyl)-6-(3,5-dimethylisoxazol-4-yl)pyrrolo[3,2-b]pyridin-3-yl]phenyl]acetic acid] | < 10000 nM | < 1 µM |  | < 1 µM
4 | COC(=O)c1ccc(-c2cn(CC3CCCCCC3)c3cc(-c4c(C)noc4C)cnc23)cc1 [P-0585, methyl 4-[1-(cycloheptylmethyl)-6-(3,5-dimethylisoxazol-4-yl)pyrrolo[3,2-b]pyridin-3-yl]benzoate] | < 10000 nM | < 1 µM |  | 1 to 10 µM
5 | Cc1noc(C)c1-c1cnc2c(-c3cnn(C(F)F)c3)cn([C@H](C)c3ccc(F)cc3)c2c1 [P-0352, 4-[3-[1-(difluoromethyl)pyrazol-4-yl]-1-[(1R)-1-(4-fluorophenyl)ethyl]pyrrolo[3,2-b]pyridin-6-yl]-3,5-dimethyl-isoxazole] | < 10000 nM | < 1 µM | < 1 µM | 
6 | Cc1noc(C)c1-c1cnc2c(-c3ccc(CC(=O)O)cc3)cn(CC3(F)CCCCC3)c2c1 [P-0383, 2-[4-[6-(3,5-dimethylisoxazol-4-yl)-1-[(1-fluorocyclohexyl)methyl]pyrrolo[3,2-b]pyridin-3-yl]phenyl]acetic acid] | < 10000 nM | < 1 µM | < 1 µM | 
7 | Cc1noc(C)c1-c1cnc2c(-c3ccc(C(C)(C)C)cc3)cn(CC3CCC(F)(F)CC3)c2c1 [P-0802, 4-[3-(4-tert-butylphenyl)-1-[(4,4-difluorocyclohexyl)methyl]pyrrolo[3,2-b]pyridin-6-yl]-3,5-dimethyl-isoxazole] | < 10000 nM | < 1 µM |  | 1 to 10 µM
8 | Cc1nnn(C)c1-c1cnc2c(-c3ccc(S(N)(=O)=O)cc3)cn(CC3(F)CCCCC3)c2c1 [P-0479, 4-[6-(3,5-dimethyltriazol-4-yl)-1-[(1-fluorocyclohexyl)methyl]pyrrolo[3,2-b]pyridin-3-yl]benzenesulfonamide] | < 10000 nM | < 1 µM |  | < 1 µM
9 | COC(=O)Cc1ccc(-c2cn([C@@H](C)c3ccccn3)c3cc(-c4c(C)noc4C)cnc23)cc1 [P-0565, methyl 2-[4-[6-(3,5-dimethylisoxazol-4-yl)-1-[(1S)-1-(2-pyridyl)ethyl]pyrrolo[3,2-b]pyridin-3-yl]phenyl]acetate] | < 10000 nM | < 1 µM |  | < 1 µM
10 | Cc1noc(C)c1-c1cnc2c(-c3cccc(C(=O)O)c3)cn(CC3CCC(F)(F)CC3)c2c1 [P-0393, 3-[1-[(4,4-difluorocyclohexyl)methyl]-6-(3,5-dimethylisoxazol-4-yl)pyrrolo[3,2-b]pyridin-3-yl]benzoic acid] | < 10000 nM | < 1 µM | < 1 µM | 
11 | Cc1ccc(-c2cn(CC3CCC(F)(F)CC3)c3cc(-c4c(C)noc4C)cnc23)cc1 [P-0604, 4-[1-[(4,4-difluorocyclohexyl)methyl]-3-(p-tolyl)pyrrolo[3,2-b]oyridin-6-yl]-3,5-dimethyl-isoxazole] | < 10000 nM | < 1 µM |  | < 1 µM
12 | Cn1cc(-c2cn(CC3CCC(F)(F)CC3)c3cc(-c4ccc(=O)n(C)c4)cnc23)cn1 [P-0438, 5-[1-[(4,4-difluorocyclohexyl)methyl]-3-(1-methylpyrazol-4-yl)pyrrolo[3,2-b]pyridin-6-yl]-1-methyl-pyridin-2-one] | < 10000 nM | < 1 µM |  | < 1 µM
13 | COc1cc(-c2cn(CC3CCC(F)(F)CC3)c3cc(-c4c(C)noc4C)cnc23)ccc1C(=O)O [P-0404, 4-[1-[(4,4-difluorocyclohexyl)methyl]-6-(3,5-dimethylisoxazol-4-yl)pyrrolo[3,2-b]pyridin-3-yl]-2-methoxy-benzoic acid] | < 10000 nM | < 1 µM | < 1 µM | 
14 | Cc1noc(C)c1-c1cnc2c(-c3cccc(O)c3)cn(CC3(F)CCCCC3)c2c1 [P-0488, 3-[6-(3,5-dimethylisoxazol-4-yl)-1-[(1-fluorocyclohexyl)methyl]pyrrolo[3,2-b]pyridin-3-yl]phenol] | < 10000 nM | < 1 µM |  | < 1 µM
15 | Cc1noc(C)c1-c1cnc2c(-c3cnn(CCF)c3)cn(CC3(F)CCCCC3)c2c1 [P-0260, 4-[1-[(1-fluorocyclohexyl)methyl]-3-[1-(2-fluoroethyl)pyrazol-4-yl]pyrrolo[3,2-b]pyridin-6-yl]-3,5-dimethyl-isoxazole] | < 10000 nM | < 1 µM | < 1 µM | 
16 | Cc1n[nH]c(C)c1-c1cnc2c(-c3cnn(CC(F)(F)F)c3)cn(CC3CCC(F)(F)CC3)c2c1 [P-0440] | < 10000 nM | < 1 µM |  | < 1 µM
17 | Cc1noc(C)c1-c1cnc2c(-c3cnn(CC(F)(F)F)c3)cn(CC3CCCCC3)c2c1 [P-0553, 4-[1-(cyclohexylmethyl)-3-[1-(2,2,2-trifluoroethyl)pyrazol-4-yl]pyrrolo[3,2-b]pyridin-6-yl]-3,5-dimethyl-isoxazole] | < 10000 nM | < 1 µM |  | < 1 µM
18 | Cc1noc(C)c1-c1cnc2c(-c3ccc(C(=O)O)cc3)cn(C(C)(C)c3ccccn3)c2c1 [P-0548, 4-[6-(3,5-dimethylisoxazol-4-yl)-1-[1-methyl-1-(2-pyridyl)ethyl]pyrrolo[3,2-b]pyridin-3-yl]benzoic acid] | < 10000 nM | < 1 µM |  | < 1 µM
19 | Cc1noc(C)c1-c1cnc2c(-c3ccc(C(=O)O)cc3)cn(CC3CCCC3)c2c1 [P-0552, 4-[1-(cyclopentylmethyl)-6-(3,5-dimethylisoxazol-4-yl)pyrrolo[3,2-b]pyridin-3-yl]benzoic acid] | < 10000 nM | < 1 µM |  | < 1 µM
20 | CCn1cc(-c2cn(CC3CCC(F)(F)CC3)c3cc(-c4c(C)nnn4C)cnc23)cn1 [P-0427, 1-[(4,4-difluorocyclohexyl)methyl]-6-(3,5-dimethyltriazol-4-yl)-3-(1-ethylpyrazol-4-yl)pyrrolo[3,2-b]pyridine] | < 10000 nM | < 1 µM |  | < 1 µM
21 | Cc1noc(C)c1-c1cnc2c(-c3ccc(C(=O)O)cc3)cn([C@@H](C)c3ccccc3)c2c1 [P-0560, 4-[6-(3,5-dimethylisoxazol-4-yl)-1-[(1S)-1-phenylethyl]pyrrolo[3,2-b]pyridin-3-yl]benzoic acid] | < 10000 nM | < 1 µM |  | < 1 µM
22 | Cc1noc(C)c1-c1cnc2c(-c3ccc(CC(=O)O)cc3)cn(CC3CCC(F)(F)CC3)c2c1 [P-0413, 2-[4-[1-[(4,4-difluorocyclohexyl)methyl]-6-(3,5-dimethylisoxazol-4-yl)pyrrolo[3,2-b]pyridin-3-yl]phenyl]acetic acid] | < 10000 nM | < 1 µM | < 1 µM | 
23 | Cc1noc(C)c1-c1cnc2c(-c3cnn(C(F)F)c3)cn([C@@H](C)c3ccccn3)c2c1 [P-0514, 4-[3-[1-(difluoromethyl)pyrazol-4-yl]-1-[(1S)-1-(2-pyridyl)ethyl]pyrrolo[3,2-b]pyridin-6-yl]-3,5-dimethyl-isoxazole] | < 10000 nM | < 1 µM |  | < 1 µM
24 | [2H]C([2H])(C1CCC(F)(F)CC1)n1cc(-c2ccc(C(=O)OC)cc2)c2ncc(-c3c(C)noc3C)cc21 [P-0538, methyl 4-[1-[dideuterio-(4,4-difluorocyclohexyl)methyl]-6-(3,5-dimethylisoxazol-4-yl)pyrrolo[3,2-b]pyridin-3-yl]benzoate] | < 10000 nM | < 1 µM |  | < 1 µM
25 | Cc1noc(C)c1-c1cnc2c(-c3ccc(C4(C(=O)O)CC4)cc3)cn(CC3(F)CCCCC3)c2c1 [P-0385, 1-[4-[6-(3,5-dimethylisoxazol-4-yl)-1-[(1-fluorocyclohexyl)methyl]pyrrolo[3,2-b]pyridin-3-yl]phenyl]cyclopropanecarboxylic acid] | < 10000 nM | < 1 µM | < 1 µM | 
26 | [2H]C([2H])(C1CC(F)(F)C1)n1cc(I)c2ncc(-c3c(C)noc3C)cc21 [P-0254, 4-[1-[dideuterio-(3,3-difluorocyclobutyl)methyl]-3-iodo-pyrrolo[3,2-b]pyridin-6-yl]-3,5-dimethyl-isoxazole] | < 10000 nM | < 1 µM | < 1 µM | 
27 | Cc1noc(C)c1-c1cnc2c(-c3ccc(O)nc3)cn(CC3CCC(F)(F)CC3)c2c1 [P-0402, 5-[1-[(4,4-difluorocyclohexyl)methyl]-6-(3,5-dimethylisoxazol-4-yl)pyrrolo[3,2-b]pyridin-3-yl]pyridin-2-ol] | < 10000 nM | < 1 µM | < 1 µM | 
